Test results reported in US9067926B2, “Fluoromethyl-5,6-dihydro-4H-[1,3]OXAZINES” (F. Hoffmann-La Roche AG, priority 2012, dated 2015).

Target: T1, BACE1 (Homo sapiens, UniProt P56817)
T1 construct: endogenous in cells; host or cells: HEK293 APP cells
Assay: Cellular Aβ-lowering assay (Abeta 40 AlphaLISA)
Assay type: cell-based
Conditions: HEK293 APP cells, 18-20 hrs incubation, Aβ 40 in culture supernatant; read-out: BACE1 cell act. Aβ40 IC50
Procedure: Cellular Aβ-Lowering Assay:
The Abeta 40 AlphaLISA Assay can be used. The HEK293 APP cells were seeded in 96 well Microtiter plates in cell culture medium (Iscove's, plus 10% (vv) fetal bovine serum, penicillinstreptomycin) to about 80% confluency and the compounds were added at a 3× concentration in 13 volume of culture medium (final DMSO concentration was kept at 1% vv). After 18-20 hrs incubation at 37° C. and 5% CO2 in a humidified incubator, the culture supernatants were harvested for the determination of Aβ 40 concentrations using Perkin-Elmer Human Amyloid beta 1-40 (high specificity) Kit (Cat# AL275C).
Levels of Aβ 40 in the culture supernatants were calculated as percentage of maximum signal (cells treated with 1% DMSO without inhibitor). The IC50 values were calculated using the Excel XLfit software.

T1 sequence (P56817 46-501): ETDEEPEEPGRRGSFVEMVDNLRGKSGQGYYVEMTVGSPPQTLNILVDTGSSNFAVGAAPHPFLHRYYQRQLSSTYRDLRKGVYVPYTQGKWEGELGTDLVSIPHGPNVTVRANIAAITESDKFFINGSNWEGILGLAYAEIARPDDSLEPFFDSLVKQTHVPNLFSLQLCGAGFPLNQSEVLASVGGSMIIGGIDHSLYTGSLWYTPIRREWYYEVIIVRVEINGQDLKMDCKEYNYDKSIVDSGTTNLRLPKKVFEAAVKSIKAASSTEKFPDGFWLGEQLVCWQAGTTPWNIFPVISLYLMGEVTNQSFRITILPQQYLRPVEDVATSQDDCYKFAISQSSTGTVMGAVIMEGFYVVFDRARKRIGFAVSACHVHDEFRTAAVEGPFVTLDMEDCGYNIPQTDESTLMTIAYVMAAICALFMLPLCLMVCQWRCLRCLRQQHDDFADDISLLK

Row | SMILES | IC50 [nM]
1 | NC1=N[C@](CF)(c2cc(NC(=O)c3ccc(Cl)cn3)ccc2F)C[C@@H](C(F)(F)F)O1 [Example 4, N-(3-((4S,6S)-2-amino-4-(fluoromethyl)-6-(trifluoromethyl)-5,6-dihydro-4H-1,3-oxazin-4-yl)-4-fluorophenyl)-5-chloropicolinamide] | 22
2 | COc1cnc(C(=O)Nc2ccc(F)c([C@]3(C)C[C@@H](C(F)(F)F)OC(N)=N3)c2)cn1 [Example 5, N-(3-((4S,6S)-2-amino-4-methyl-6-(trifluoromethyl)-5,6-dihydro-4H-1,3-oxazin-4-yl)-4-fluorophenyl)-5-methoxypyrazine-2-carboxamide] | 5
3 | C[C@@]1(c2cc(NC(=O)c3cnc(OCC(F)F)cn3)ccc2F)C[C@@H](C(F)(F)F)OC(N)=N1 [Example 6, N-(3-((4S,6S)-2-amino-4-methyl-6-(trifluoromethyl)-5,6-dihydro-4H-1,3-oxazin-4-yl)-4-fluorophenyl)-5-(2,2-difluoroethoxyl)pyrazine-2-carboxamide] | 24
4 | C[C@@]1(c2cc(NC(=O)c3cnc(OCC(F)(F)F)cn3)ccc2F)C[C@@H](C(F)(F)F)OC(N)=N1 [Example 7, N-(3-((4S,6S)-2-amino-4-methyl-6-(trifluoromethyl)-5,6-dihydro-4H-1,3-oxazin-4-yl)-4-fluorophenyl)-5-(2,2,2-trifluoroethoxyl)pyrazine-2-carboxamide] | 15
5 | C[C@@]1(c2cc(NC(=O)c3ccc(Cl)cn3)ccc2F)C[C@H](C(F)(F)F)OC(N)=N1 [Example 9, N-(3-((4S,6R)-2-Amino-4-methyl-6-(trifluoromethyl)-5,6-dihydro-4H-1,3-oxazin-4-yl)-4-fluorophenyl)-5-chloropicolinamide] | 710
6 | C[C@@]1(c2cc(NC(=O)c3ncc(Cl)cc3Cl)ccc2F)C[C@@H](C(F)(F)F)OC(N)=N1 [Example 10, N-(3-((4S,6S)-2-Amino-4-methyl-6-(trifluoromethyl)-5,6-dihydro-4H-1,3-oxazin-4-yl)-4-fluorophenyl)-3,5-chloropicolinamide] | 6
7 | Cc1cc(C#N)cnc1C(=O)Nc1ccc(F)c([C@]2(C)C[C@@H](C(F)(F)F)OC(N)=N2)c1 [Example 12, N-(3-((4S,6S)-2-Amino-4-methyl-6-(trifluoromethyl)-5,6-dihydro-4H-1,3-oxazin-4-yl)-4-fluorophenyl)-5-cyano-3-methylpicolinamide] | 3
8 | C[C@@]1(c2cc(NC(=O)c3ncc(C#N)cc3Cl)ccc2F)C[C@@H](C(F)(F)F)OC(N)=N1 [Example 13, N-(3-((4S,6S)-2-Amino-4-methyl-6-(trifluoromethyl)-5,6-dihydro-4H-1,3-oxazin-4-yl)-4-fluorophenyl)-3-chloro-5-cyanopicolinamide] | 13
9 | COc1ccc(C(=O)Nc2ccc(F)c([C@]3(C)C[C@@H](C(F)(F)F)OC(N)=N3)c2)nc1 [Example 14, N-(3-((4S,6S)-2-Amino-4-methyl-6-(trifluoromethyl)-5,6-dihydro-4H-1,3-oxazin-4-yl)-4-fluorophenyl)-5-methoxypicolinamide] | 2
10 | C[C@@]1(c2cc(NC(=O)c3ccc(OC(F)F)cn3)ccc2F)C[C@@H](C(F)(F)F)OC(N)=N1 [Example 15, N-(3-((4S,6S)-2-Amino-4-methyl-6-(trifluoromethyl)-5,6-dihydro-4H-1,3-oxazin-4-yl)-4-fluorophenyl)-5-(difluoromethoxy)picolinamide] | 1
11 | C[C@@]1(c2cc(NC(=O)c3ccc(OC(F)(F)F)cn3)ccc2F)C[C@@H](C(F)(F)F)OC(N)=N1 [Example 16, N-(3-((4S,6S)-2-Amino-4-methyl-6-(trifluoromethyl)-5,6-dihydro-4H-1,3-oxazin-4-yl)-4-fluorophenyl)-5-(trifluoromethoxy)picolinamide] | 1
12 | C[C@@]1(c2cc(NC(=O)c3ccc(C(F)F)cn3)ccc2F)C[C@@H](C(F)(F)F)OC(N)=N1 [Example 17, N-(3-((4S,6S)-2-Amino-4-methyl-6-(trifluoromethyl)-5,6-dihydro-4H-1,3-oxazin-4-yl)-4-fluorophenyl)-5-(difluoromethyl)picolinamide] | 2
